Results: patent publication US8476265B2, “Compounds-801” (AstraZeneca AB, priority 2010, dated 2013)
pIC50: −log10 of the molar value.

Experiments:
[1] = biological target: T1, Adrenergic β2 (Homo sapiens, UniProt P07550); assay: Adrenergic β2 mediated cAMP production in H292 cells (AlphaScreen), concentration response; type: cell-based; settings: for EC50: 60 min, 300 μM rolipram, read-out: β2 pEC50 (converted); for β2 Intrinsic Activity: fraction relative to the maximum activity determined for formoterol
T1 construct: Adherent H292 cells are removed from tissue culture flasks by treatment with Accutase™ cell detachment solution; endogenous in cells; host or cells: H292 cells
In short: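 H292 cells seeded overnight, pretreated 10 min with rolipram (300 μM final), then exposed to compounds 60 min at room temperature in HBSS/10 mM HEPES pH 7.4/5 mM glucose, 1% DMSO. Lysate cAMP quantified by AlphaScreen against a standard curve; four-parameter fit gives pEC50 and intrinsic activity relative to formoterol maximum.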

[2] = biological target: T2, human muscarinic acetylcholine M3 receptor (Homo sapiens, UniProt P20309); assay: Muscarinic 3 receptor binding assay ([3H]NMS competition, SPA), pIC50; settings: [3H]NMS 0.1 nM, CHO-K1 cell membranes expressing human M3 receptor
T2 construct: expressed in transfected cells; host or cells: CHO-K1 (Chinese Hamster Ovary) cell membranes
In short: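 Competition of [3H]NMS (0.1 nM, quarter Kd) binding to CHO-K1 membranes expressing human M3, SPA format, in 20 mM HEPES pH 7.4, 5 mM MgCl2, 0.1% BSA, 1% DMSO. Incubated 16 h at room temperature; non-specific binding with 1 μM atropine; pIC50 from specific binding.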

T1 sequence (P07550 whole entry): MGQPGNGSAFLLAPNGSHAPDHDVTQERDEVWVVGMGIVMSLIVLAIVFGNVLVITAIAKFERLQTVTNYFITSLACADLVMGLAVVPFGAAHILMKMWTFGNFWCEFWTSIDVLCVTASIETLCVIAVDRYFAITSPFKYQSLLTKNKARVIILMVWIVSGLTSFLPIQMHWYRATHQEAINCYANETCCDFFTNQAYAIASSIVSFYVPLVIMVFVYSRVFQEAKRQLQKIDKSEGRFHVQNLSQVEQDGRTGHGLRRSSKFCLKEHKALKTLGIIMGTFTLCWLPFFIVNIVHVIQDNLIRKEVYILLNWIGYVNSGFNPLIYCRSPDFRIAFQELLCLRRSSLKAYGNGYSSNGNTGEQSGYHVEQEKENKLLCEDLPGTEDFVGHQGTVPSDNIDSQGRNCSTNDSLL
T2 sequence (P20309 whole entry): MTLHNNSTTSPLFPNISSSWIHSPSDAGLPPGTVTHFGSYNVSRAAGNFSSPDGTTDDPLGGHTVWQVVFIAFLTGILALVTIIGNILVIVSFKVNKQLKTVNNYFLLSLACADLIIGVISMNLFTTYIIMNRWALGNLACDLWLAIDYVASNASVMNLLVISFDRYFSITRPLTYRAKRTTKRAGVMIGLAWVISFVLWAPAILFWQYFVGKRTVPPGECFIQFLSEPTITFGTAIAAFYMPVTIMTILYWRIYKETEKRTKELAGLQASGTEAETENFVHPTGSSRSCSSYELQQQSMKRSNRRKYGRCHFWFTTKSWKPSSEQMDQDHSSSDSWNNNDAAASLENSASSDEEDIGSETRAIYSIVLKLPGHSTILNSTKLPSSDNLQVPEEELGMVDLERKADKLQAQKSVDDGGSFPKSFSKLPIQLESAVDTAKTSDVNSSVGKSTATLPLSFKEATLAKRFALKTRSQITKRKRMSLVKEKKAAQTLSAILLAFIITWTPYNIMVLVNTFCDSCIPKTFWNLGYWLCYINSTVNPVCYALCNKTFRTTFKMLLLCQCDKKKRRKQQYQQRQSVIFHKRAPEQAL

Structure (SMILES)	EC50 [1]	β2 Intrinsic Activity [1]	pIC50 [2]
CCCCN(CCNCCc1ccc(O)c2c1OCC(=O)N2)C(=O)CCOCCc1ccc(CCN2CCC3(CC2)CN(C(=O)c2csc(C(C)C)n2)CCO3)cc1 [Example 4, N-Butyl-N-(2-(2-(5-hydroxy-3-oxo-3,4-dihydro-2H-benzo[b][1,4]oxazin-8-yl)ethylamino)ethyl)-3-(4-(2-(4-(2-isopropylthiazole-4-carbonyl)-1-oxa-4,9-diazaspiro[5.5]undecan-9-yl)ethyl)phenethoxy)propanamide ditrifluoroacetate]	25.1 nM	0.8	9.10
CCc1nc(C(=O)N2CCOC3(CCN(Cc4cccc(CCOCCC(=O)N(CCNCCc5ccc(O)c6c5OCC(=O)N6)C5CCCC5)c4Cl)CC3)C2)cs1 [Example 33, 3-(2-Chloro-3-((4-(2-ethylthiazole-4-carbonyl)-1-oxa-4,9-diazaspiro[5.5]undecan-9-yl)methyl)phenethoxy)-N-cyclopentyl-N-(2-(2-(5-hydroxy-3-oxo-3,4-dihydro-2H-benzo[b][1,4]oxazin-8-yl)ethylamino)ethyl)propanamide ditrifluoroacetate]	15.8 nM	1.0	9.40
CC(C)c1nc(C(=O)N2CCOC3(CCN(Cc4cccc(CCCOCCC(=O)N(CCNCCc5ccc(O)c6c5OCC(=O)N6)C5CCCCC5)c4)CC3)C2)cs1 [Example 57, N-Cyclohexyl-N-(2-(2-(5-hydroxy-3-oxo-3,4-dihydro-2H-benzo[b][1,4]oxazin-8-yl)ethylamino)ethyl)-3-(3-(3-((4-(2-isopropylthiazole-4-carbonyl)-1-oxa-4,9-diazaspiro[5.5]undecan-9-yl)methyl)phenyl)propoxy)propanamide ditrifluoroacetate]	316 nM	0.9	> 10.30
CC(C)c1nc(C(=O)N2CCOC3(CCN(Cc4cccc(CCOCCC(=O)N(CCNCCc5ccc(O)c6c5OCC(=O)N6)[C@H](C)C(C)(C)C)c4F)CC3)C2)cs1 [Example 19, (R)—N-(3,3-Dimethylbutan-2-yl)-3-(2-fluoro-3-((4-(2-isopropylthiazole-4-carbonyl)-1-oxa-4,9-diazaspiro[5.5]undecan-9-yl)methyl)phenethoxy)-N-(2-(2-(5-hydroxy-3-oxo-3,4-dihydro-2H-benzo[b][1,4]oxazin-8-yl)ethylamino)ethyl)propanamide ditrifluoroacetate]	50.1 nM	0.9	9.20
CC(C)c1nc(C(=O)N2CCOC3(CCN(Cc4cccc(COCCOCCC(=O)N(CCNCCc5ccc(O)c6c5OCC(=O)N6)C5CCCCC5)c4)CC3)C2)cs1 [Example 67, N-Cyclohexyl-N-(2-(2-(5-hydroxy-3-oxo-3,4-dihydro-2H-benzo[b][1,4]oxazin-8-yl)ethylamino)ethyl)-3-(2-(3-((4-(2-isopropylthiazole-4-carbonyl)-1-oxa-4,9-diazaspiro[5.5]undecan-9-yl)methyl)benzyloxy)ethoxy)propanamide ditrifluoroacetate]	31.6 nM	0.8	9.60
CC(C)c1nc(C(=O)N2CCOC3(CCN(Cc4cccc(CCOCCC(=O)N(C)CCNCCc5ccc(O)c6[nH]c(=O)sc56)c4F)CC3)C2)cs1 [Example 13, 3-(2-Fluoro-3-((4-(2-isopropylthiazole-4-carbonyl)-1-oxa-4,9-diazaspiro[5.5]undecan-9-yl)methyl)phenethoxy)-N-(2-(2-(4-hydroxy-2-oxo-2,3-dihydrobenzo[d]thiazol-7-yl)ethylamino)ethyl)-N-methylpropanamide ditrifluoroacetate]	25.1 nM	0.8	9.20
COc1cccc(CN(CCNCCc2ccc(O)c3c2OCC(=O)N3)C(=O)CCOCCc2cccc(CN3CCC4(CC3)CN(C(=O)c3csc(C(C)C)n3)CCO4)c2F)c1 [Example 23, 3-(2-Fluoro-3-((4-(2-Isopropylthiazole-4-carbonyl)-1-oxa-4,9-diazaspiro[5.5]undecan-9-yl)methyl)phenethoxy)-N-(2-(2-(5-hydroxy-3-oxo-3,4-dihydro-2H-benzo[b][1,4]oxazin-8-yl)ethylamino)ethyl)-N-(3-methoxybenzyl)propanamide ditrifluoroacetate]	79.4 nM	1.2	9.50
CC(C)c1nc(C(=O)N2CCOC3(CCN(Cc4csc(CCOCCC(=O)N(CCNCCc5ccc(O)c6c5OCC(=O)N6)C5CCCCC5)c4)CC3)C2)cs1 [Example 56, N-Cyclohexyl-N-(2-(2-(5-hydroxy-3-oxo-3,4-dihydro-2H-benzo[b][1,4]oxazin-8-yl)ethylamino)ethyl)-3-(2-(4-((4-(2-isopropylthiazole-4-carbonyl)-1-oxa-4,9-diazaspiro[5.5]undecan-9-yl)methyl)thiophen-2-yl)ethoxy)propanamide ditrifluoroacetate]	200 nM	1.2	10.20
CCN(CCNCCc1ccc(O)c2c1OCC(=O)N2)C(=O)CCOCCc1cccc(CN2CCC3(CC2)CN(C(=O)c2csc(CC(C)C)n2)CCO3)c1F [Example 69, N-Ethyl-3-(2-fluoro-3-((4-(2-isobutylthiazole-4-carbonyl)-1-oxa-4,9-diazaspiro[5.5]undecan-9-yl)methyl)phenethoxy)-N-(2-(2-(5-hydroxy-3-oxo-3,4-dihydro-2H-benzo[b][1,4]oxazin-8-yl)ethylamino)ethyl)propanamide ditrifluoroacetate]	31.6 nM	0.8	9.60
O=C1COc2c(CCNCCN(C(=O)CCOCCc3cccc(CN4CCC5(CC4)CN(C(=O)c4ccc6occc6c4)CCO5)c3)C3CCCCC3)ccc(O)c2N1 [Example 84, 3-(3-((4-(Benzofuran-5-carbonyl)-1-oxa-4,9-diazaspiro[5.5]undecan-9-yl)methyl)phenethoxy)-N-cyclohexyl-N-(2-(2-(5-hydroxy-3-oxo-3,4-dihydro-2H-benzo[b][1,4]oxazin-8-yl)ethylamino)ethyl)propanamide]	200 nM	1.0	9.70
CCN(CCNCCc1ccc(O)c2[nH]c(=O)sc12)C(=O)CCOCCc1cc(Cl)cc(CN2CCC3(CC2)CN(C(=O)c2csc(C(C)C)n2)CCO3)c1 [Example 50, 3-(3-Chloro-5-((4-(2-isopropylthiazole-4-carbonyl)-1-oxa-4,9-diazaspiro[5.5]undecan-9-yl)methyl)phenethoxy)-N-ethyl-N-(2-(2-(4-hydroxy-2-oxo-2,3-dihydrobenzo[d]thiazol-7-yl)ethylamino)ethyl)propanamide ditrifluoroacetate]	126 nM	0.9	6.10
CC(C)c1nc(C(=O)N2CCOC3(CCN(CCOc4ccc(CCOCCC(=O)N(CCNCCc5ccc(O)c6c5OCC(=O)N6)C5CCCCC5)cc4)CC3)C2)cs1 [Example 51, N-Cyclohexyl-N-(2-(2-(5-hydroxy-3-oxo-3,4-dihydro-2H-benzo[b][1,4]oxazin-8-yl)ethylamino)ethyl)-3-(4-(2-(4-(2-isopropylthiazole-4-carbonyl)-1-oxa-4,9-diazaspiro[5.5]undecan-9-yl)ethoxy)phenethoxy)propanamide ditrifluoroacetate]	63.1 nM	1.1	8.40
